Here are results for 15 compounds from patent US20230373985A1 (Origenis Gmbh, priority 2020, published 2023).

The structures appear in SMILES notation.

The target in assay [1] is T1, wt human TYK2, catalytic site (Homo sapiens, UniProt P29597).
T1 construct: wt human TYK2, catalytic site; purchased SignalChem
T1 sequence (P29597 897-1176 limits assumed): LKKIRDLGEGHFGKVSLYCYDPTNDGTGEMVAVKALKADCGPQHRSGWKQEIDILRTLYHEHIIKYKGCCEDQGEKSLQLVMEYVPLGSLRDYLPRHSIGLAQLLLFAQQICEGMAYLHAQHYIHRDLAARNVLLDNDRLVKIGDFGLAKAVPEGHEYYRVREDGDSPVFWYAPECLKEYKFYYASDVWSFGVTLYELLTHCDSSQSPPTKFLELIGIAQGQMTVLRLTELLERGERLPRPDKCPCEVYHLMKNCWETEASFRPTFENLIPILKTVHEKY
Kind of assay: HTRF KinEASE assay, TYK2. Type of assay: biochemical. As to conditions: 1 μM ATP; read-out: IC50, Activity Toward TYK2. Summed up: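 Kinase reaction run at room temperature for at least 30 min: 2 nM TYK2 with 1 μM ATP, or 1 nM JAK2 with 100 μM ATP, each with 1 μM biotin-TK substrate. Phosphorylation detected by HTRF (60 min antibody/XL665) and evaluated from emission ratios.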

The target of assay [2] is T2, wt human LRRK2, catalytic site (Homo sapiens, UniProt Q5S007).
T2 construct: 5 nM wt human LRRK2, catalytic site; purchased ThermoFisher
The experiment in a line: TR-FRET LanthaScreen Eu Kinase Binding Assay, LRRK2 wt. As to conditions: one range stated for wt and G2019, read-out: IC50, Activity Toward LRRK2(Wt). Summed up: (§1)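 Kinase Buffer A holding, as final levels, 8 nM full-length NUAK1, 2 nM Eu-anti-His antibody and 5 nM Tracer 236, or 5 nM LRRK2 catalytic site (wt or G2019S), 2 nM Eu-anti-GST and 10 nM Tracer 236. Compound added, then 1 h at room temperature before TR-FRET ratio readout.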
(In general: In TR-FRET formats the signal depends on donor and acceptor labels being close together.)

In assay [3] the target is T3, G2019S human LRRK2, catalytic site (Homo sapiens, UniProt Q5S007, G2019S).
T3 construct: G2019S human LRRK2, catalytic site; purchased ThermoFisher
Kind of assay: TR-FRET LanthaScreen Eu Kinase Binding Assay, LRRK2 G2019S. As to conditions: LRRK2(G2019); one range stated for wt and G2019; read-out: IC50, Activity Toward LRRK2(G2019). Summed up: as §1

For assay [4], the target named is T4, wt human NUAK1, full length (Homo sapiens, UniProt O60285).
T4 construct: 8 nM wt human NUAK1, full length (ThermoFisher/USA); purchased ThermoFisher
T4 sequence (O60285 1-661): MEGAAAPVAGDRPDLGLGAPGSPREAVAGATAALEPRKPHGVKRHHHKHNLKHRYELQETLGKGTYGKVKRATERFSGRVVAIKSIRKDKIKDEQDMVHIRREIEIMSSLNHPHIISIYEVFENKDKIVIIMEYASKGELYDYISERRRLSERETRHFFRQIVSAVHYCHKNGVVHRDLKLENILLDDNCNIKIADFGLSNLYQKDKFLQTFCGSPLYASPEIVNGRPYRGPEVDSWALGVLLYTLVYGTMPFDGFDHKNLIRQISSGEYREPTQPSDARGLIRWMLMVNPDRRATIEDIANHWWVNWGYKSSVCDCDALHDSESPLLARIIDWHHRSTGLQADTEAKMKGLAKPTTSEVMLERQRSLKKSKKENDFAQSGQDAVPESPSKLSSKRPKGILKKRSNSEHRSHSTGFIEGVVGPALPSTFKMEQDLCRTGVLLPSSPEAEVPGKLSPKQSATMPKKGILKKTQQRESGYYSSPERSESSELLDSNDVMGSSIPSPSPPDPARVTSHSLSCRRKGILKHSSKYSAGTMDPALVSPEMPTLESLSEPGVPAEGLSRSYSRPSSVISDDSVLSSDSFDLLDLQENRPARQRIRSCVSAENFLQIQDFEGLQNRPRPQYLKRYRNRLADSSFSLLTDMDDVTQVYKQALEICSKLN
The experiment in a line: TR-FRET LanthaScreen Eu Kinase Binding Assay, NUAK1. As to conditions: read-out: IC50, Activity Toward NUAK1. Here is the method:
The basic protocol for TR-FRET LanthaScreen Eu Kinase Binding Assay inhibitor studies were performed as follows. LanthaScreen Kinase Binding Assays (ThermoFisher/USA) to evaluate inhibitors were performed by addition of 5 μL of test compound in corresponding DMSO dilutions/5 μl of kinase/antibody mixture, 5 μL of tracer into 384 well small volume plates. After incubation for 1 hour at room temperature, plates were read. Data analysis of emission ratios was according LanthaScreen Eu Kinase Binding Assay protocol.
Kinase and assay components were adjusted to final concentrations according to kit protocol. For LRRK2: 5 nM wt human LRRK2, catalytic site, or G2019S human LRRK2, catalytic site (ThermoFisher/USA), 2 nM Eu-Anti-GST Antibody, 10 nM Kinase Tracer 236 in 1× Kinase Buffer A. For NUAK1: 8 nM wt human NUAK1, full length (ThermoFisher/USA), 2 nM Eu-Anti-His Antibody, 5 nM Kinase Tracer 236 in 1× Kinase Buffer A.

The target in assay [5] is T5, wt human JAK1, catalytic site (Homo sapiens, UniProt P23458).
T5 construct: wt human JAK1, catalytic site; purchased ThermoFisher
The experiment in a line: HTRF KinEASE assay, JAK1. The format is biochemical. The following applies: 2.5 μM ATP; read-out: IC50, Activity Toward JAK1. The gist of the method:
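Compounds in DMSO dilution were mixed with kinase, biotin-TK substrate and ATP and reacted for ≥30 min at room temperature. Detection reagents (antibody, streptavidin-XL665) were read 60 min later as HTRF, with emission ratios analysed per KinEASE protocol.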

T5 sequence (P23458 875-1153 limits assumed): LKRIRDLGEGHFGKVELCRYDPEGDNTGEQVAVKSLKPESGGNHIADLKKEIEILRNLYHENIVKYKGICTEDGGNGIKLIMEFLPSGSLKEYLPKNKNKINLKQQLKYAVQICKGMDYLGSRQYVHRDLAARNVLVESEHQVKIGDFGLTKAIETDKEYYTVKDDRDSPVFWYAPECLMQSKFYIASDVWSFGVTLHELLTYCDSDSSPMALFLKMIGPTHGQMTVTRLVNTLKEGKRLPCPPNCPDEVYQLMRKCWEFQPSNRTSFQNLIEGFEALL
T2 sequence (Q5S007 970-2527 limits assumed): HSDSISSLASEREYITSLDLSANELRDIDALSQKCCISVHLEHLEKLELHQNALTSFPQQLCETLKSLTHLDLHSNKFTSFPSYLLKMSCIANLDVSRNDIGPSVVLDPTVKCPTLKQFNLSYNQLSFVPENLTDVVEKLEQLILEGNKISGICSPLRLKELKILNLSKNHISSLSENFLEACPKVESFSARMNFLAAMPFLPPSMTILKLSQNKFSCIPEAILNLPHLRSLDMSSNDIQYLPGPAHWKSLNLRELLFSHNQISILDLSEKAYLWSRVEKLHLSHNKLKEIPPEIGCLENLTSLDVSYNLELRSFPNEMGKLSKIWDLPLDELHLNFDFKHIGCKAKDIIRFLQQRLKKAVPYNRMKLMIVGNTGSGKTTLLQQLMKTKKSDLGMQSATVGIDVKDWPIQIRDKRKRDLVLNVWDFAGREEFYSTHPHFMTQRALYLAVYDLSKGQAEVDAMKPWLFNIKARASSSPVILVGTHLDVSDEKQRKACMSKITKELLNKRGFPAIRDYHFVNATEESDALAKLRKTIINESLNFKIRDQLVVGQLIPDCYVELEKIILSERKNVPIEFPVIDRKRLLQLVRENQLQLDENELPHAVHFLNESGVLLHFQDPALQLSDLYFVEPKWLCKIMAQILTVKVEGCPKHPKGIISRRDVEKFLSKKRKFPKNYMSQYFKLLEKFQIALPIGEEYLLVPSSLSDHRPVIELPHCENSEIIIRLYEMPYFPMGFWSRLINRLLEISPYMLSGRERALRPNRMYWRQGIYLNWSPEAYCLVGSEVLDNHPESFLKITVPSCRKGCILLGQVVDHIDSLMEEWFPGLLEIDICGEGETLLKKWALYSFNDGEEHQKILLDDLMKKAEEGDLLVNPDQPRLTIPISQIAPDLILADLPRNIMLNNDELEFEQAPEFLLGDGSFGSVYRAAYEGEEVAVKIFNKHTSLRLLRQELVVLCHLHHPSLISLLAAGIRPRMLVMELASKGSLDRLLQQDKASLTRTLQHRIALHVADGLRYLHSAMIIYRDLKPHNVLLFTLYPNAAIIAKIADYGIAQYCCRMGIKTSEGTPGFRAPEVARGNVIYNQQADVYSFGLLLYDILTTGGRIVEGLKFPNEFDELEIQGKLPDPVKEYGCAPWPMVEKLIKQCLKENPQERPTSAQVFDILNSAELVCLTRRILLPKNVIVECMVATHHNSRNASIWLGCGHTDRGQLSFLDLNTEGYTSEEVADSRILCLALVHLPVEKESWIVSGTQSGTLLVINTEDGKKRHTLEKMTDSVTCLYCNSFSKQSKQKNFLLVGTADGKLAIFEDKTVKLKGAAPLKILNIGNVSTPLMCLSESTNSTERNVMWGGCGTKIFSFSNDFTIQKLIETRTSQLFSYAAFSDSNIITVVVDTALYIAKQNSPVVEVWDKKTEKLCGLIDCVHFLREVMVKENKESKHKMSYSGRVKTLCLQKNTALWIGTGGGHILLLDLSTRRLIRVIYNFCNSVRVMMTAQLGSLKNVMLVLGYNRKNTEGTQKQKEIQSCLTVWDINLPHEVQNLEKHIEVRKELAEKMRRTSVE
T3 sequence (Q5S007 970-2527 G2019S limits assumed): as the sequence (Q5S007 970-2527 limits assumed) above, with G1050S counted along it

As a reminder, the IC50 is the concentration at which inhibition is half-maximal. On to `NC(=O)c1nn(-c2c(F)cccc2Cl)cc1Nc1ccc(C(=O)N2CCCCC2)cc1` [compound 228, 1-(2-chloro-6-fluorophenyl)-4-((4-(piperidine-1-carbonyl)phenyl)amino)-1H-pyrazole-3-carboxamide], for which the IC50 in assay [1] was 10 to 100 nM; in assay [2], 100 to 1000 nM; in assay [3], 100 to 1000 nM; in assay [4], 100 to 1000 nM; in assay [5], 10 to 100 nM.

Regarding `Cc1cc(Nc2cn(-c3c(F)cccc3F)nc2C(N)=O)nc(N)n1` [compound 8, 4-((2-amino-6-methylpyrimidin-4-yl)amino)-1-(2,6-difluorophenyl)-1H-pyrazole-3-carboxamide], the IC50 in assay [1] was in the range of 100 to 1000 nM; in assay [2] it was 100 to 1000 nM; in assay [3], 100 to 1000 nM; in assay [4], 10 to 100 nM; in assay [5] it was 100 to 1000 nM.

For the compound `NC(=O)c1nn(-c2c(Cl)cccc2Cl)cc1Nc1ccc(C(=O)N2CCN(CC3CC3)CC2)cc1` [compound 86, 4-((4-(4-(cyclopropylmethyl)piperazine-1-carbonyl)phenyl)amino)-1-(2,6-dichlorophenyl)-1H-pyrazole-3-carboxamide], the 50% inhibitory concentration (IC50) in assay [1] was less than 10 nM; in assay [2] it was 100 to 1000 nM; in assay [3], 100 to 1000 nM; in assay [4], 100 to 1000 nM; in assay [5], 10 to 100 nM.

On to `CCNC(=O)c1ccc(Nc2cn(-c3c(F)cccc3F)nc2C(N)=O)cc1` [compound 16, 1-(2,6-difluorophenyl)-4-((4-(ethylcarbamoyl)phenyl)amino)-1H-pyrazole-3-carboxamide], for which the half-maximal inhibitory concentration (IC50) in assay [1] fell in the range of 10 to 100 nM; in assay [2], 100 to 1000 nM; in assay [3], 100 to 1000 nM; in assay [4] it was 100 to 1000 nM; in assay [5], 100 to 1000 nM.

Turning to `CCc1nc(C(F)(F)F)nn1-c1ccc(Nc2cn(-c3c(F)cccc3F)nc2C(N)=O)cc1` [compound 284], the IC50 in assay [1] was 10 to 100 nM; in assay [2] it was 100 to 1000 nM; in assay [3] it was 100 to 1000 nM; in assay [4], 100 to 1000 nM; in assay [5], 100 to 1000 nM.

Regarding `CN(C)C1CCN(C(=O)c2ccc(Nc3cn(-c4c(Cl)cccc4Cl)nc3C(N)=O)cc2)CC1` [compound 423, 1-(2,6-dichlorophenyl)-4-((4-(4-(dimethylamino)piperidine-1-carbonyl)phenyl)amino)-1H-pyrazole-3-carboxamide], the half-inhibitory concentration (IC50) in assay [1] lay in the range of 10 to 100 nM; in assay [2] it was 100 to 1000 nM; in assay [3], 100 to 1000 nM; in assay [4] it was 100 to 1000 nM; in assay [5], 10 to 100 nM.

Turning to `Cn1ccnc1-c1ccc(Nc2cn(-c3c(Cl)cccc3Cl)nc2C(N)=O)cc1` [compound 225, 1-(2,6-dichlorophenyl)-4-((4-(1-methyl-1H-imidazol-2-yl)phenyl)amino)-1H-pyrazole-3-carboxamide], the IC50 lay in the range of 10 to 100 nM in assay [1]; 100 to 1000 nM in assay [2]; 100 to 1000 nM in assay [3]; 100 to 1000 nM in assay [4]; 10 to 100 nM in assay [5].

As to `NC(=O)c1nn(-c2c(F)cccc2C(F)(F)F)cc1Nc1ccc(C(=O)N2CC3(CCC3)C2)cc1` [compound 61, 4-((4-(2-azaspiro[3.3]heptane-2-carbonyl)phenyl)amino)-1-(2-fluoro-6-(trifluoromethyl)phenyl)-1H-pyrazole-3-carboxamide], the half-inhibitory concentration (IC50) in assay [1] lay in the range of 10 to 100 nM; in assay [2], 100 to 1000 nM; in assay [3], 100 to 1000 nM; in assay [4], 100 to 1000 nM; in assay [5], 100 to 1000 nM.

Take `NC(=O)c1nn(-c2c(F)cccc2Cl)cc1Nc1ccc(C(=O)NC2CCCNC2)cc1` (centres unmarked) [compound 38, 1-(2-chloro-6-fluorophenyl)-4-((4-(piperidin-3-ylcarbamoyl)phenyl)amino)-1H-pyrazole-3-carboxamide]: the concentration for half-maximal inhibition (IC50) in assay [1] was in the range of 10 to 100 nM; in assay [2], 100 to 1000 nM; in assay [3], 100 to 1000 nM; in assay [4], 10 to 100 nM; in assay [5], 10 to 100 nM.

As for `Cc1ccnnc1-c1ccc(Nc2cn(-c3c(F)cccc3F)nc2C(N)=O)cc1` [compound 296, 1-(2,6-difluorophenyl)-4-((4-(4-methylpyridazin-3-yl)phenyl)amino)-1H-pyrazole-3-carboxamide], the IC50 lay within 10 to 100 nM in assay [1]; 100 to 1000 nM in assay [2]; 100 to 1000 nM in assay [3]; 100 to 1000 nM in assay [4]; 100 to 1000 nM in assay [5].

Regarding `CN(C)C1CCN(C(=O)c2ccc(Nc3cn(-c4c(Cl)cccc4Cl)nc3C(N)=O)cc2)C1` (centres unmarked) [compound 248, 1-(2,6-dichlorophenyl)-4-((4-(3-(dimethylamino)pyrrolidine-1-carbonyl)phenyl)amino)-1H-pyrazole-3-carboxamide], the IC50 in assay [1] was 10 to 100 nM; in assay [2], 100 to 1000 nM; in assay [3], 100 to 1000 nM; in assay [4] it was 100 to 1000 nM; in assay [5], 10 to 100 nM.

Consider `CCc1ccnn1-c1ccc(Nc2cn(-c3c(F)cccc3F)nc2C(N)=O)cc1` [compound 287, 1-(2,6-difluorophenyl)-4-((4-(5-ethyl-1H-pyrazol-1-yl)phenyl)amino)-1H-pyrazole-3-carboxamide], for which the half-maximal inhibitory concentration (IC50) in assay [1] was 100 to 1000 nM; in assay [2] it was 100 to 1000 nM; in assay [3], 100 to 1000 nM; in assay [4] it was 10 to 100 nM; in assay [5], 100 to 1000 nM.

Regarding `Cc1cc(Nc2cn(-c3c(F)cccc3F)nc2C(N)=O)ncn1` [compound 4, 1-(2,6-difluorophenyl)-4-((6-methylpyrimidin-4-yl)amino)-1H-pyrazole-3-carboxamide], the IC50 in assay [1], in assay [2], in assay [3] and in assay [4] was 100 to 1000 nM in each case.

In the case of `NC(=O)c1nn(-c2c(F)cccc2F)cc1Nc1ccccn1` [compound 7, 1-(2,6-difluorophenyl)-4-(pyridin-2-ylamino)-1H-pyrazole-3-carboxamide], the IC50 in assay [1], in assay [2], in assay [3] and in assay [4] was 100 to 1000 nM throughout.

Turning to `COCCc1ncnn1-c1ccc(Nc2cn(-c3c(Cl)cccc3Cl)nc2C(N)=O)cc1` [compound 327, 1-(2,6-dichlorophenyl)-4-((4-(5-(2-methoxyethyl)-1H-1,2,4-triazol-1-yl)phenyl)amino)-1H-pyrazole-3-carboxamide], the concentration for half-maximal inhibition (IC50) in assay [1] is 10 to 100 nM; in assay [4], 100 to 1000 nM; in assay [5] it was 10 to 100 nM.
